Reference: patent publication US9732094B2, “Arylquinazolines” (Merck Patent GmbH, priority 2013, dated 2017)
Like-named read-outs stand apart in the source and are kept apart here.

Experiments:
[1] = molecular target: DNA-PK phosphorylation at serine 2056 (Homo sapiens (Human), UniProt P78527); test: DNA-PK phosphorylation at serine 2056 (cellular), bleomycin-treated HCT116 cells, ELISA; type: cell-based; conditions: read-out: IC50 pDNA-PK
Outline: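 Chemiluminescent ELISA quantified DNA-PK Ser2056 phosphorylation relative to total DNA-PKcs in HCT116 cells. Cells received compounds together with 10 μM bleomycin for 6 h; DMSO served as blank.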

DNA-PK = DNA-PK (Homo sapiens (Human), UniProt P78527); test: DNA-PK assay (biochemical), flashplate 33P-ATP kinase assay
Outline: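 Radiometric kinase reaction in streptavidin-coated flashplates, stopped with 200 mM EDTA, then 30 min room-temperature incubation and saline washes.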

Kv11.1 (hERG) = Kv11.1 (hERG) (Homo sapiens (Human), UniProt Q12809); test: Kv11.1 (hERG) ion channel activity (patch clamp assay), HEK293 cells transfected with hERG gene
[2] = cellular, HCT116 cells, 10 μM bleomycin, six hours
[3] = read-out: Ki [Kv1.11 hERG], patch clamp, HEK293 transfected with hERG gene
[4] = cellular DNA-PK phosphorylation at serine 2056, HCT116
[5] = Ki [Kv1.11 hERG], hERG patch clamp assay (cells without asterisk)
[6] = read-out: Ki [Kv1.11 hERG], hERG patch clamp assay (cells without asterisk)
[7] = Ki [Kv1.11 hERG], patch clamp, HEK293 transfected with hERG gene

Sequence of Kv11.1 (hERG) (Q12809 whole entry): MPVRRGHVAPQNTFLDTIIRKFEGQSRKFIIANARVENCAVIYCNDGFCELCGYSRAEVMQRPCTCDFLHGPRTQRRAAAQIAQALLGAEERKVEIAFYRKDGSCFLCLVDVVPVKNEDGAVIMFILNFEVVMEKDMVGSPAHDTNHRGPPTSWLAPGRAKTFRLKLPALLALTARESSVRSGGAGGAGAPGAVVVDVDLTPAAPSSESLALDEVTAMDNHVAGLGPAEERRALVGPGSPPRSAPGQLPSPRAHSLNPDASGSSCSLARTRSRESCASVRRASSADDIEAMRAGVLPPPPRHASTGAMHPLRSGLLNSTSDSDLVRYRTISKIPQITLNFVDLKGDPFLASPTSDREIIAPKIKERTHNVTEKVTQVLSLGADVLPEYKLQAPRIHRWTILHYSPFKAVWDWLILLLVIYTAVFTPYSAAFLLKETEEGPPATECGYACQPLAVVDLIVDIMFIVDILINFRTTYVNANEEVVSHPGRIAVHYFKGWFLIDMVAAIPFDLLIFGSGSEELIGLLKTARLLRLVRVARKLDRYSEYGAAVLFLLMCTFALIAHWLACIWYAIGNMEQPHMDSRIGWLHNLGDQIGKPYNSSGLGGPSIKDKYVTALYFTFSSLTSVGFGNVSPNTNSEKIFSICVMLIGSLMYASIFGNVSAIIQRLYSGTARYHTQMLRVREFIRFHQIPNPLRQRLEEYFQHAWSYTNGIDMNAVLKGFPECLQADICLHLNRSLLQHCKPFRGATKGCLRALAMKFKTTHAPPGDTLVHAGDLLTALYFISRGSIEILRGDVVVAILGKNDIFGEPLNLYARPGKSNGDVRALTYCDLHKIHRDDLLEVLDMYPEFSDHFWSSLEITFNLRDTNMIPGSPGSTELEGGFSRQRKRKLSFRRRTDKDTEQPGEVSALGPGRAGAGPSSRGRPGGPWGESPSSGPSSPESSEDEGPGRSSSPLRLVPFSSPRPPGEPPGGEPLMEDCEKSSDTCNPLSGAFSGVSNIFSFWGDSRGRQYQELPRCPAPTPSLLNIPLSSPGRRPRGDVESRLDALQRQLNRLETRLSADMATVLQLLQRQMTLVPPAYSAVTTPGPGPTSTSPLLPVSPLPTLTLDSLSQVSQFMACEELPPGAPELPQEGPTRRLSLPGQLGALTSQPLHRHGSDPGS

IC50 [1, 2] | IC50 (DNA-PK; enzymatic, 5 μM ATP) | IC50 [1, 4] | IC50 (DNA-PK; biochemical DNA-PK assay) | Compound | Ki (Kv11.1 (hERG); [6]) | further results
10 to 30 µM | 0.003 to 0.007 µM |  |  | COC(=O)COc1ccc(C(O)c2cc(-c3ncnc4cc(N5CCOCC5)ccc34)c(F)cc2Cl)nn1 (stereo not drawn) [Example 114, (6-{[2-Chloro-4-fluoro-5-(7-morpholin-4-yl-quinazolin-4-yl)-phenyl]hydroxy-methyl}pyridazin-3-yl-oxy)acetic acid methyl ester] |  | Ki (Kv11.1 (hERG); [3]): > 25 µM
 |  | 0.5 to 5 µM | < 0.003 µM | COc1cncnc1C(O)c1cc(-c2ncnc3cc(N4CCOCC4)ccc23)c(F)cc1F (stereo not drawn) [Example 448, [2,4-Difluoro-5-(7-morpholin-4-yl-quinazolin-4-yl)-phenyl]-(5-methoxy-pyrimidin-4-yl)-methanol] |  | Ki (Kv11.1 (hERG); [5]): 10 to 15 µM
 |  | < 0.5 µM | 0.003 to 0.007 µM | Cc1nccnc1C(O)c1cc(-c2ncnc3cc(N4CCOCC4)ccc23)c(F)cc1Cl (stereo not drawn) [Example 457, [2-Chloro-4-fluoro-5-(7-morpholin-4-yl-quinazolin-4-yl)-phenyl]-(3-methyl-pyrazin-2-yl)-methanol] | > 25 µM | 
0.5 to 5 µM | 0.003 to 0.007 µM |  |  | CNC(=O)c1ccc(C(O)c2cc(-c3ncnc4cc(N5CCOCC5)ccc34)c(F)cc2Cl)nn1 (stereo not drawn) [Example 43, 6-{[2-Chloro-4-fluoro-5-(7-morpholin-4-yl-quinazolin-4-yl)phenyl]-hydroxymethyl}-pyridazine-3-carboxylic acid methylamide] |  | Ki (Kv11.1 (hERG); [3]): > 25 µM
< 0.5 µM | 0.003 to 0.007 µM |  |  | OC(c1ccc(F)c(-c2ncnc3cc(N4CCOCC4)ccc23)c1)c1cncc(F)c1Cl (stereo not drawn) [Example 2, (4-Chloro-5-fluoropyridin-3-yl)-[4-fluoro-3-(7-morpholin-4-ylquinazolin-4-yl)phenyl]methanol] |  | Ki (Kv11.1 (hERG); [7]): 10 to 15 µM
5 to 10 µM | 0.007 to 0.03 µM |  |  | Cc1cnnc(C(O)c2cc(-c3ncnc4cc(N5CCOCC5)ccc34)c(F)cc2Cl)c1 (stereo not drawn) [Example 46, [2-Chloro-4-fluoro-5-(7-morpholin-4-yl-quinazolin-4-yl)phenyl]-(5-methylpyridazin-3-yl)methanol] |  | Ki (Kv11.1 (hERG); [7]): 15 to 25 µM
 |  | 0.5 to 5 µM | 0.003 to 0.007 µM | OC(c1cc(-c2ncnc3cc(N4CCOCC4)ccc23)ccc1Cl)c1nccn2cccc12 (stereo not drawn) [Example 361, (2-Chloro-5-(7-morpholin-4-yl-quinazolin-4-yl)-phenyl]pyrrolo[1,2-a]-pyrazin-1-ylmethanol] | < 10 µM | 
0.5 to 5 µM | 0.007 to 0.03 µM |  |  | COc1cnc(C(O)c2ccc(F)c(-c3ncnc4cc(N5CCOCC5)ccc34)c2)cn1 (stereo not drawn) [Example 60, [4-Fluoro-3-(7-morpholin-4-yl-quinazolin-4-yl)phenyl]-(5-methoxypyrazin-2-yl)methanol] |  | Ki (Kv11.1 (hERG); [7]): 15 to 25 µM
 |  | < 0.5 µM | 0.003 to 0.007 µM | OC(c1cc(-c2ncnc3cc(N4CCOCC4)ccc23)ccc1Cl)c1ncnc2ccoc12 (stereo not drawn) [Example 415, [2-Chloro-5-(7-morpholin-4-yl-quinazolin-4-yl)-phenyl]furo[3,2-d}-pyrimidin-4-yl-methanol] | 10 to 15 µM | 
 |  | < 0.5 µM | < 0.003 µM | OC(c1cc(-c2ncnc3cc(N4CCOCC4)ccc23)c(F)cc1F)c1nncc2ccoc12 (stereo not drawn) [Example 336, [2,4-Difluoro-5-(7-morpholin-4-yl-quinazolin-4-yl)-phenyl]furo[2,3-d}-pyridazin-7-yl-methanol] | > 25 µM | 
 |  | 0.5 to 5 µM | 0.007 to 0.03 µM | CNC(=O)C(c1cc(-c2ncnc3cc(N4CCOCC4)ccc23)c(F)cc1Cl)c1nccnc1OC (stereo not drawn) [Example 229, 2-[2-Chloro-4-fluoro-5-(7-morpholin-4-yl-quinazolin-4-yl)-phenyl]-2-(3-methoxypyrazin-2-yl)-N-methyl-acetamide] | > 25 µM | 
 |  | < 0.5 µM | < 0.003 µM | Cn1c(C(O)c2cc(-c3ncnc4cc(N5CCOCC5)ccc34)ccc2Cl)cccc1=O (single isomer, unassigned) [Example 364, 6-{[2-Chloro-5-(7-morpholin-4-yl-quinazolin-4-yl)-phenyl]hydroxy-methyl}-1-methyl-1H-pyridin-2-one] | > 25 µM | 
< 0.5 µM | < 0.003 µM |  |  | OC(c1ccc(F)c(-c2ncnc3cc(N4CCOCC4)ccc23)c1)c1nc(Cl)cnc1Cl (stereo not drawn) [Example 35, (3,6-Dichloro-pyrazin-2-yl)-[4-fluoro-3-(7-morpholin-4-yl-quinazolin-4-yl)phenyl]-methanol] |  | Ki (Kv11.1 (hERG); [7]): 10 to 15 µM
 |  | < 0.5 µM | < 0.003 µM | COc1ccc(C(O)c2cc(-c3ncnc4cc(N5CCOCC5)ccc34)ccc2Cl)nn1 (stereo not drawn) [Example 458, [2-Chloro-5-(7-morpholin-4-yl-quinazolin-4-yl)-phenyl]-(6-methoxy-pyridazin-3-yl)-methanol] |  | Ki (Kv11.1 (hERG); [5]): 10 to 15 µM
5 to 10 µM | 0.003 to 0.007 µM |  |  | CN(C)c1ccc(C(O)c2ccc(F)c(-c3ncnc4cc(N5CCOCC5)ccc34)c2)nn1 (stereo not drawn) [Example 68, (6-Dimethylamino-pyridazin-3-yl)-[4-fluoro-3-(7-morpholin-4-yl-quinazolin-4-yl)phenyl]-methanol] |  | Ki (Kv11.1 (hERG); [3]): > 25 µM
0.5 to 5 µM | < 0.003 µM |  |  | OCCOc1ccc(C(O)c2cc(-c3ncnc4cc(N5CCOCC5)ccc34)c(F)cc2Cl)nn1 (stereo not drawn) [Example 116, 2-(6-{[2-Chloro-4-fluoro-5-(7-morpholin-4-yl-quinazolin-4-yl)-phenyl]hydroxy-methyl}pyridazin-3-yl-oxy)ethanol] |  | Ki (Kv11.1 (hERG); [3]): > 25 µM
 |  | 10 to 30 µM | 0.003 to 0.007 µM | NC(=O)C(c1ccc(F)c(-c2ncnc3cc(N4CCOCC4)ccc23)c1)c1nncc2sccc12 (stereo not drawn) [Example 285, 2-[4-Fluoro-3-(7-morpholin-4-yl-quinazolin-4-yl)-phenyl]-2-thieno-[2,3-d}pyridazin-4-yl-acetamide] |  | Ki (Kv11.1 (hERG); [5]): 15 to 25 µM
 |  | < 0.5 µM | < 0.003 µM | Cn1c(C(O)c2ccc(F)c(-c3ncnc4cc(N5CCOCC5)ccc34)c2)cccc1=O (stereo not drawn) [Example 376, 6-{[4-Fluoro-3-(7-morpholin-4-yl-quinazolin-4-yl)-phenyl]hydroxy-methyl}-1-methyl-1H-pyridin-2-one] | > 25 µM | 
5 to 10 µM | 0.007 to 0.03 µM |  |  | O[C@@H](c1ccc(F)c(-c2ncnc3cc(N4CCOCC4)ccc23)c1)c1nccnc1Cl [Example 28, (S)-(3-Chloro-pyrazin-2-yl)-[4-fluoro-3-(7-morpholin-4-yl-quinazolin-4-yl)phenyl]-methanol] |  | Ki (Kv11.1 (hERG); [7]): 15 to 25 µM
< 0.5 µM | < 0.003 µM |  |  | COc1ccc(C(O)c2cc(-c3ncnc4cc(N5CCOCC5)sc34)c(F)cc2Cl)nn1 (single isomer, unassigned) [Example 126, [2-Chloro-4-fluoro-5-(6-morpholin-4-ylthieno[3,2-d}-pyrimidin-4-yl)-phenyl]-(6-methoxy-pyridazin-3-yl)-methanol] |  | Ki (Kv11.1 (hERG); human, HEK293 cells stably transfected with the hERG gene, Ki [Kv1.11 hERG], patch clamp, HEK293 transfected with hERG gene): 10 to 15 µM
 |  | 0.5 to 5 µM | 0.007 to 0.03 µM | COc1nccnc1C(C(N)=O)c1cc(-c2ncnc3cc(N4CCOCC4)ccc23)c(F)cc1Cl (stereo not drawn) [Example 320, 2-[2-Chloro-4-fluoro-5-(7-morpholin-4-yl-quinazolin-4-yl)-phenyl]-2-(3-methoxy-pyrazin-2-yl)acetamide] | > 25 µM | 
0.5 to 5 µM | 0.003 to 0.007 µM |  |  | COc1ccc(C(O)c2cc(-c3nc(Cl)nc4cc(N5CCOCC5)ccc34)c(F)cc2Cl)nn1 (stereo not drawn) [Example 132, [2-Chloro-5-(2-chloro-7-morpholin-4-yl-quinazolin-4-yl)-4-fluorophenyl]-(6-methoxy-pyridazin-3-yl)-methanol] |  | Ki (Kv11.1 (hERG); [3]): > 25 µM
< 0.5 µM | < 0.003 µM |  |  | COc1ccc(C(O)c2ccc(F)c(-c3ncnc4cc(N5CCOCC5)ccc34)c2)nn1 (stereo not drawn) [Example 74, [4-Fluoro-3-(7-morpholin-4-yl-quinazolin-4-yl)phenyl]-(6-methoxypyridazin-3-yl)methanol] |  | Ki (Kv11.1 (hERG); [3]): > 25 µM
 |  | 0.5 to 5 µM | 0.003 to 0.007 µM | Cn1ncc2c(C(O)c3cc(-c4ncnc5cc(N6CCOCC6)ccc45)c(F)cc3F)ncnc21 (stereo not drawn) [Example 403, [2,4-Difluoro-5-(7-morpholin-4-yl-quinazolin-4-yl)-phenyl]-(1-methyl-1H-pyrazolo[3,4-d}-pyrimidin-4-yl)-methanol] |  | Ki (Kv11.1 (hERG); [5]): 15 to 25 µM
 |  |  |  | Cn1nc(C(O)c2cc(-c3ncnc4cc(N5CCOCC5)ccc34)c(F)cc2F)ccc1=O (stereo not drawn) [Example 219, 6-{[2,4-Difluoro-5-(7-morpholin-4-yl-quinazolin-4-yl)-phenyl]hydroxy-methyl}-2-methyl-2H-pyridazin-3-one] |  | IC50 ([1]; Table 7, HCT116 cells): 0.5 to 5 µM; IC50 (DNA-PK; Table 7): 0.003 to 0.007 µM; Ki (Kv11.1 (hERG); Ki [Kv1.11 hERG], Table 7): 15 to 25 µM
< 0.5 µM | < 0.003 µM |  |  | OC(c1ccc(F)c(-c2ncnc3cc(N4CCOCC4)ccc23)c1)c1ncccc1OC(F)F (stereo not drawn) [Example 81, (3-Difluoromethoxy-pyridin-2-yl)-[4-fluoro-3-(7-morpholin-4-yl-quinazolin-4-yl)-phenyl]methanol] |  | Ki (Kv11.1 (hERG); [3]): > 25 µM

Compound | IC50 [1, 2] | IC50 (DNA-PK; enzymatic, 5 μM ATP) | IC50 [1, 4] | IC50 (DNA-PK; biochemical DNA-PK assay) | Ki (Kv11.1 (hERG); [6]) | further results
OC(c1cc(-c2ncnc3cc(N4CCOCC4)ccc23)c(F)cc1F)c1nccnc1OC(F)F (stereo not drawn) [Example 451, (3-Difluoromethoxy-pyrazin-2-yl)-[2,4-difluoro-5-(7-morpholin-4-yl-quinazolin-4-yl)-phenyl]methanol] |  |  | 0.5 to 5 µM | 0.003 to 0.007 µM | 15 to 25 µM | 
